Assay results published in patent US8501732B2, “Aminomethyl quinolone compounds” (Hoffmann-La Roche Inc., priority 2011, dated 2013).
Where two headings read alike, the source gives them in different places.

Biological target: JNK1 (Homo sapiens (Human), UniProt P45983)
Test: In Vitro JNK1 Assay (TR-FRET, phosphorylation of GST-c-Jun)
Format: biochemical
Experimental: Phosphorylation of GST-c-Jun protein (amino acid residues 1-79) was measured as JNK1 activity. […] The reaction buffer contained 50 mM HEPES, pH […], 1 mM DTT, 0.1 mM Na3VO4 and 0.2 mg/mL BSA. After 30 min. incubation at room temperature, the reaction was terminated by adding buffer containing 8 mM EDTA and a polyclonal anti-phospho-c-Jun antibody (Cell Signaling #9261L), followed by an additional incubation of 30 min. at room temperature. […] Time-resolved Fluorescence Resonance Energy Transfer (TR-FRET) signals were measured 1 hr. later on the EnVision reader (Perkin Elmer). Compound potency was assessed at 10 serially diluted concentrations. Percentage of inhibition at each concentration was determined to generate an IC50 value for each compound.

[1] = 0.2 nM active JNK1 kinase, 26.7 nM GST-c-Jun, 2 μM ATP, 30 min at room temperature

JNK1, sequence (P45983 whole entry): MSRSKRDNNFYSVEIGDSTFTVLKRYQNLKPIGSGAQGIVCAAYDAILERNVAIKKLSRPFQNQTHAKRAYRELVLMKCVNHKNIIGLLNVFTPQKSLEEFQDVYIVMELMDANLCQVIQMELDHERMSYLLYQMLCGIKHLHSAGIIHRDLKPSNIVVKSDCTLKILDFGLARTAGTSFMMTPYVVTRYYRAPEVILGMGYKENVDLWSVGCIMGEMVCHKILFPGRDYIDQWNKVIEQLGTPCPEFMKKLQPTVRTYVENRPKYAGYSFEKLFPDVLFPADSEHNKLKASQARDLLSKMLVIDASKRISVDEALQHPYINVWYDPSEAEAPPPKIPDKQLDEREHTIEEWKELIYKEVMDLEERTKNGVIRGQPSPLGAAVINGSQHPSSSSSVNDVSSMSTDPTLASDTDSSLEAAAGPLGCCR

Row | SMILES | IC50 [1] [nM] | IC50 [nM]
1 | NC(=O)C1CCN(c2ccc(C(=O)NCc3cn(-c4ccccc4)c4cc(Cl)ccc4c3=O)cn2)CC1 [Example I-86, 3,4,5,6-Tetrahydro-2H-[1,2′]bipyridinyl-4,5′-dicarboxylic acid 4-amide-5′-[(7-chloro-4-oxo-1-phenyl-1,4-dihydro-quinolin-3-ylmethyl)-amide]] | 110 | –
2 | COC(=O)c1c(CN(C)C(=O)c2ccc(S(C)(=O)=O)cc2)c(=O)c2ccc(Cl)cc2n1-c1ccccc1 [Example I-211, 7-Chloro-3-{[(4-methanesulfonyl-benzoyl)-methyl-amino]-methyl}-4-oxo-1-phenyl-1,4-dihydro-quinoline-2-carboxylic acid methyl ester] | 920 | –
3 | COC(=O)c1c(CNC(=O)N2CCOCC2)c(=O)c2ccc(Cl)cc2n1-c1ccccc1 [Example I-209, 7-Chloro-3-{[(morpholine-4-carbonyl)-amino]-methyl}-4-oxo-1-phenyl-1,4-dihydro-quinoline-2-carboxylic acid methyl ester] | 150 | –
4 | CN(C)C(=O)c1c(CNC(=O)c2ccc(F)cc2)c(=O)c2ccc(Cl)cc2n1-c1ccccc1 [Example I-20, 7-Chloro-3-[(4-fluoro-benzoylamino)-methyl]-4-oxo-1-phenyl-1,4-di-hydro-quinoline-2-carboxylic acid dimethylamide] | 240 | –
5 | O=C(NCc1cn(-c2ccccc2)c2cc(Cl)ccc2c1=O)c1cc(F)ccc1F [Example I-60, N-(7-Chloro-4-oxo-1-phenyl-1,4-dihydro-quinolin-3-ylmethyl)-2,5-difluoro-benzamide] | 1900 | –
6 | O=c1c(CNc2cc(N3CCCCC3)ncn2)cn(-c2ccccc2)c2cc(Cl)ccc12 [Example I-173, 7-Chloro-1-phenyl-3-[(6-piperidin-1-yl-pyrimidin-4-ylamino)-methyl]-1H-quinolin-4-one] | 140 | –
7 | O=C(NCc1cn(-c2ccccc2)c2cc(Cl)ccc2c1=O)N1CCN(c2ccccc2)CC1 [Example I-180, 4-Phenyl-piperazine-1-carboxylic acid (7-chloro-4-oxo-1-phenyl-1,4-dihydro-quinolin-3-ylmethyl)-amide] | 120 | –
8 | O=C(NCc1cn(-c2ccccc2)c2cc(Cl)ccc2c1=O)c1ccc2cc[nH]c2c1 [Example I-46, 1H-Indole-6-carboxylic acid (7-chloro-4-oxo-1-phenyl-1,4-dihydro-quinolin-3-ylmethyl)-amide] | 140 | –
9 | O=C(NCc1cn(-c2ccccc2)c2cc(Cl)ccc2c1=O)Nc1ccc(OC(F)(F)F)cc1 [Example I-205, 1-(4-trifluoromethoxy-phenyl)-3-(7-chloro-4-oxo-1-phenyl-1,4-dihydro-quinolin-3-yl-methyl)-urea] | 1800 | –
10 | O=c1c(CNc2nc3ccccc3s2)cn(-c2ccccc2)c2cc(Cl)ccc12 [Example I-175, 3-(Benzothiazol-2-ylaminomethyl)-7-chloro-1-phenyl-1H-quinolin-4-one] | 700 | –
11 | COC(=O)[C@H]1CC[C@@H](NC(=O)NCc2cn(-c3ccccc3)c3cc(Cl)ccc3c2=O)CC1 [Example I-185, 4-[3-(7-Chloro-4-oxo-1-phenyl-1,4-dihydro-quinolin-3-ylmethyl)-ureido]-cyclohexanecarboxylic acid methyl ester] | 1100 | –
12 | O=C(NCc1cn(-c2ccccc2)c2cc(Cl)ccc2c1=O)NC1CCN(C(=O)Oc2ccccc2)CC1 [Example I-193, 4-[3-(7-Chloro-4-oxo-1-phenyl-1,4-dihydro-quinolin-3-ylmethyl)-ureido]-piperidine-yl-carboxylic acid phenyl ester] | – | 180
13 | CC(C)(C)OC(=O)N1CCC(NC(=O)NCc2cn(-c3ccccc3)c3cc(Cl)ccc3c2=O)CC1 [Example I-192, 4-[3-(7-Chloro-4-oxo-1-phenyl-1,4-dihydro-quinolin-3-ylmethyl)-ureido]-piperidine-1-carboxylic acid tert-butyl ester] | 60 | –
14 | O=C(NCc1cn(-c2ccccc2)c2cc(Cl)ccc2c1=O)NC1CCCC1 [Example I-184, 1-(7-Chloro-4-oxo-1-phenyl-1,4-dihydro-quinolin-3-ylmethyl)-3-cyclopentyl-urea] | 920 | –
15 | O=C(NCc1cn(-c2ccccc2)c2cc(Cl)ccc2c1=O)N1CCCCC1 [Example I-188, Piperidine-1-carboxylic acid (7-chloro-4-oxo-1-phenyl-1,4-dihydro-quinolin-3-yl-methyl)-amide] | 1700 | –
16 | CN(C)C(=O)c1c(CNC(=O)c2ccc(N3CCOCC3)cc2)c(=O)c2ccc(Cl)cc2n1-c1ccccc1 [Example I-17, 7-Chloro-3-[(4-morpholin-4-yl-benzoylamino)-methyl]-4-oxo-1-phenyl-1,4-dihydro-quinoline-2-carboxylic acid dimethylamide] | 140 | –
17 | Cn1ccc(C(=O)NCc2cn(-c3ccccc3)c3cc(Cl)ccc3c2=O)cc1=O [Example I-54, 1-Methyl-2-oxo-1,2-dihydro-pyridine-4-carboxylic acid (7-chloro-4-oxo-1-phenyl-1,4-dihydro-quinolin-3-ylmethyl)-amide] | 670 | –

Row | SMILES | IC50 [1] [nM] | IC50 [nM]
18 | COC(=O)c1c(CNC(=O)c2ccccc2Cl)c(=O)c2ccc(Cl)cc2n1-c1ccccc1 [Example I-148, 7-Chloro-3-[(2-chloro-benzoylamino)-methyl]-4-oxo-1-phenyl-1,4-dihydro-quinoline-2-carboxylic acid methyl ester] | 430 | –
19 | CN(C)C(=O)c1c(CNC(=O)c2ccc(-c3cnco3)cc2)c(=O)c2ccc(Cl)cc2n1-c1ccccc1 [Example I-18, 7-Chloro-3-[(4-oxazol-5-yl-benzoylamino)-methyl]-4-oxo-1-phenyl-1,4-dihydro-quinoline-2-carboxylic acid dimethylamide] | 150 | –
20 | CC(C)(C)OC(=O)N1CCC(NC(=O)NCc2cn(-c3ccccc3)c3cc(Cl)ccc3c2=O)C1 (stereo not drawn) [Example I-183, 3-[3-(7-Chloro-4-oxo-1-phenyl-1,4-dihydro-quinolin-3-ylmethyl)-ureido]-pyrrolidine-1-carboxylic acid tert-butyl ester] | 910 | –
21 | O=C(NCc1cn(-c2ccccc2)c2cc(Cl)ccc2c1=O)c1cnc(N2CCOCC2)nc1 [Example I-56, 2-Morpholin-4-yl-pyrimidine-5-carboxylic acid (7-chloro-4-oxo-1-phenyl-1,4-dihydro-quinolin-3-ylmethyl)-amide] | 190 | –
22 | O=C(NCc1cn(-c2ccccc2)c2cc(Cl)ccc2c1=O)N1CCCC1 [Example I-186, Pyrrolidine-1-carboxylic acid (7-chloro-4-oxo-1-phenyl-1,4-dihydro-quinolin-3-ylmethyl)-amide] | 1200 | –
23 | COC(=O)c1c(CNC(=O)c2ccccn2)c(=O)c2ccc(Cl)cc2n1-c1ccccc1 [Example I-146, 7-Chloro-4-oxo-1-phenyl-3-{[(pyridine-2-carbonyl)-amino]-methyl}-1,4-dihydro-quinoline-2-carboxylic acid methyl ester] | 100 | –
24 | O=C(NCc1cn(-c2ccccc2)c2cc(Cl)ccc2c1=O)NC1C2CC3CC1CC(O)(C3)C2 (stereo not drawn) [Example I-191, 1-(7-Chloro-4-oxo-1-phenyl-1,4-dihydro-quinolin-3-ylmethyl)-3-(5-hydroxy-adamantan-2-yl)-urea] | 240 | –
25 | O=C(NCc1cn(-c2ccccc2Cl)c2cc(Cl)ccc2c1=O)c1ccc(-c2cn[nH]c2)nc1 [Example I-102, N-[7-Chloro-1-(2-chloro-phenyl)-4-oxo-1,4-dihydro-quinolin-3-ylmethyl]-6-(1H-pyrazol-4-yl)-nicotinamide] | 740 | –
26 | O=C(NCc1c(-c2ncco2)n(-c2ccccc2)c2cc(Cl)ccc2c1=O)c1ccc(Cl)nc1 [Example I-6, 6-Chloro-N-(7-chloro-2-oxazol-2-yl-4-oxo-1-phenyl-1,4-dihydro-quinolin-3-ylmethyl)-nicotinamide] | 29 | –
27 | CN1CCN(c2ccc(C(=O)NCc3cn(-c4ccccc4)c4cc(Cl)ccc4c3=O)cn2)CC1 [Example I-88, N-(7-Chloro-4-oxo-1-phenyl-1,4-dihydro-quinolin-3-ylmethyl)-6-(4-methyl-piperazin-1-yl)-nicotinamide] | 250 | –
28 | COc1ccccc1Cn1ccc(C(=O)NCc2cn(-c3ccccc3)c3cc(Cl)ccc3c2=O)cc1=O [Example I-48, 1-(2-Methoxy-benzyl)-2-oxo-1,2-dihydro-pyridine-4-carboxylic acid (7-chloro-4-oxo-1-phenyl-1,4-dihydro-quinolin-3-ylmethyl)-amide] | 180 | –
29 | O=C(NCc1cn(-c2ccccc2)c2cc(Cl)ccc2c1=O)c1ccc(-c2cnco2)cc1 [Example I-47, N-(7-Chloro-4-oxo-1-phenyl-1,4-dihydro-quinolin-3-ylmethyl)-4-oxazol-5-yl-benzamide] | 170 | –
30 | O=C(NCc1cn(-c2ccccc2)c2cc(Cl)ccc2c1=O)Nc1ccccc1 [Example I-201, 1-(7-Chloro-4-oxo-1-phenyl-1,4-dihydro-quinolin-3-ylmethyl)-3-phenyl-urea] | 550 | –
31 | O=C(NCc1cn(-c2ccccc2)c2cc(Cl)ccc2c1=O)c1ccc(=O)n(Cc2ccccc2)c1 [Example I-52, 1-Benzyl-6-oxo-1,6-dihydro-pyridine-3-carboxylic acid (7-chloro-4-oxo-1-phenyl-1,4-dihydro-quinolin-3-ylmethyl)-amide] | 380 | –
32 | N#C/N=C(/NCc1cn(-c2ccccc2)c2cc(Cl)ccc2c1=O)Nc1ccccc1 [Example I-178, [(7-Chloro-4-oxo-1-phenyl-1,4-dihydro-quinolin-3-ylmethyl)-amino]-phenylamino-methylene-cyanamide] | 2700 | –
33 | COC(=O)c1c(CNc2nccc3ccccc23)c(=O)c2ccc(Cl)cc2n1-c1ccccc1 [Example I-207, 7-Chloro-3-(isoquinolin-1-ylaminomethyl)-4-oxo-1-phenyl-1,4-dihydro-quinoline-2-carboxylic acid methyl ester] | 110 | –
